The source made the active and inactive calls.
Legend:
[1] = target: FAD-linked sulfhydryl oxidase ALR (Homo sapiens, UniProt P55789); assay: inhibitors of human ALR sulfhydryl oxidase, dose response, biochemical, H2O2 detection, luminescence, cherry-pick (AID 493248)
[2] = inhibitors of intracellular T. cruzi replication, confirmation, NIH3T3 host cells, beta-gal luminescence (AID 2044); assay type: functional, cell-based;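 note: intracellular parasites grown in NIH/3T3 mouse fibroblasts as host cells; luminescent beta-galactosidase reporter signal from transgenic T. cruzi replicating inside host cells; inhibitors lower the luminescence signal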
[3] = target: T1, Mitochondrial peptide methionine sulfoxide reductase (Bos taurus, UniProt P54149); assay: Absorbance-based biochemical high throughput dose response assay for activators of Methionine sulfoxide reductase A (MsrA).; assay type: functional
T1 sequence (P54149 whole entry): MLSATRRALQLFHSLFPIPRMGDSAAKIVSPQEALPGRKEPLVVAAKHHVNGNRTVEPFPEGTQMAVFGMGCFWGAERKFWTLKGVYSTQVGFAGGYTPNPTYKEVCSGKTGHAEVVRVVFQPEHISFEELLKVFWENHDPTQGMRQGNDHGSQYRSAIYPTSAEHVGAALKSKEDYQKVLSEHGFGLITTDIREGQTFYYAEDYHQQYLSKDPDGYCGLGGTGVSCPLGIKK

[4] = growth suppression of beta-catenin-knockout colon cells, dose response, cell-based, HCT116, human colon tumor (AID 1045); assay type: functional;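 note: HCT116 colon tumor cells with beta catenin knocked out; cells exposed to compound for 60 hours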
[5] = target: Glucose-6-phosphate 1-dehydrogenase (Homo sapiens, UniProt P11413); assay: human G6PD enzyme inhibitors, dose response, selectivity assay for P. falciparum G6PD inhibitor project, biochemical, fluorescence (AID 504792); assay type: functional
[6] = cytotoxicity toward NIH3T3 fibroblasts, dose response, counter-screen, cell-based, ATP luminescence, mouse fibroblasts (AID 2010); assay type: functional;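 note: cells exposed to compound for about 90 hours before reading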
[7] = growth suppression of PTEN-null colon cells, dose response, cell-based, HCT116 PTEN knockout (AID 1047); assay type: functional;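 note: HCT116 colon tumor cells with PTEN knocked out; cells exposed to compound for 60 hours before readout; potency for loss of cell viability measured by luminescence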
Vero [8] = assay: cells; assay type: functional; settings: Chlorocebus sabaeus
[9] = target: T2, High affinity choline transporter 1 (Homo sapiens, UniProt Q9GZV3); assay: CHT inhibitors, dose response, cell-based, 5-point CRC, membrane potential dye (AID 504840); assay type: functional
T2 sequence (Q9GZV3 whole entry): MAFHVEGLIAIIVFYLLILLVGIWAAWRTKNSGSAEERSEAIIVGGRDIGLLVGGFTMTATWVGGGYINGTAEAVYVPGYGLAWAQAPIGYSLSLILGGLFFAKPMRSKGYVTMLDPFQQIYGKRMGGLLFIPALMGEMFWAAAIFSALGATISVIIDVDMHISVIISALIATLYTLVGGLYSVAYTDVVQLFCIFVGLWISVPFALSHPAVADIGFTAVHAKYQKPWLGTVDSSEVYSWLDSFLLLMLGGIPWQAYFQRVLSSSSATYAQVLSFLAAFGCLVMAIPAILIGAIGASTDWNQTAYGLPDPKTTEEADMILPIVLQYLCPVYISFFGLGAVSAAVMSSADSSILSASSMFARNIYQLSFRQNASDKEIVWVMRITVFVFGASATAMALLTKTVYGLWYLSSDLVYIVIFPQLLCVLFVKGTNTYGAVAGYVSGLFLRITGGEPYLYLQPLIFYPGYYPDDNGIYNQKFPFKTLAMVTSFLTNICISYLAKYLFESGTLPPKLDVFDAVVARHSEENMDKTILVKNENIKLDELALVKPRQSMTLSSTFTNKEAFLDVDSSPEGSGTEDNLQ

[10] = target: T2, High affinity choline transporter 1; assay: CHT inhibitors, dose response, cell-based, 10-point CRC, membrane potential dye (AID 588401); assay type: functional;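 note: membrane potential dye fluorescence of choline-evoked depolarization via CHT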
[11] = target: T3, Heat shock factor protein 1 (Mus musculus, UniProt P38532); assay: HSF1 potentiators in luciferase reporter cells, confirmation, cell-based, NIH3T3, luminescence, dose retest (AID 435004); assay type: functional;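 note: stress induced by proteasome inhibitor MG132 added 30 min after compound; luciferase reporter driven by HSF1 response element in NIH3T3 cells; actives raise luminescence as potentiators of the MG132 stress response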
T3 sequence (P38532 whole entry): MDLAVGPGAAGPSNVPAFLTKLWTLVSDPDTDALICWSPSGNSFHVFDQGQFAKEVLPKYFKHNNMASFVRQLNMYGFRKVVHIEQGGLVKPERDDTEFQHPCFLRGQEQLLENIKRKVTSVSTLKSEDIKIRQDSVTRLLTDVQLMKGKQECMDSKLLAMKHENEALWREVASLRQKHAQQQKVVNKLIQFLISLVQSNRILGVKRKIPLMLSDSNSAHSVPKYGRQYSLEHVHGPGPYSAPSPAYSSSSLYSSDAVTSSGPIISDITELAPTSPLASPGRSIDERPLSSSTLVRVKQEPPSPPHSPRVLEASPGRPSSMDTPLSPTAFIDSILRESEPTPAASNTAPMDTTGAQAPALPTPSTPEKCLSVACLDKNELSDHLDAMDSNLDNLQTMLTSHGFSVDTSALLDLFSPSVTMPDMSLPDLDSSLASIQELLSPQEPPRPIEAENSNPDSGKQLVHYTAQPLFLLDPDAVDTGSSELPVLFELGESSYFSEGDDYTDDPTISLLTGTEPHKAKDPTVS

H9c2 = assay: cells; assay type: functional, cell-based; settings: Rattus norvegicus, H9c2, Myocardium;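 note: confirmatory concentration-response retest of ultra-high-throughput screening hits for modulation of myocardial damage; cell death induced by hydrogen peroxide oxidative stress; compound pretreatment for 60 min then peroxide exposure for 2 h; potency is for protecting the cells against peroxide damage rather than for killing them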
[12] = target: T4, Apoptotic protease-activating factor 1 (Homo sapiens, UniProt O14727); assay type: functional;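 for EC50 Mean: caspase-3 cleavage of fluorogenic Rh110 DEVD substrate downstream of apoptosome activation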
T4 sequence (O14727 whole entry): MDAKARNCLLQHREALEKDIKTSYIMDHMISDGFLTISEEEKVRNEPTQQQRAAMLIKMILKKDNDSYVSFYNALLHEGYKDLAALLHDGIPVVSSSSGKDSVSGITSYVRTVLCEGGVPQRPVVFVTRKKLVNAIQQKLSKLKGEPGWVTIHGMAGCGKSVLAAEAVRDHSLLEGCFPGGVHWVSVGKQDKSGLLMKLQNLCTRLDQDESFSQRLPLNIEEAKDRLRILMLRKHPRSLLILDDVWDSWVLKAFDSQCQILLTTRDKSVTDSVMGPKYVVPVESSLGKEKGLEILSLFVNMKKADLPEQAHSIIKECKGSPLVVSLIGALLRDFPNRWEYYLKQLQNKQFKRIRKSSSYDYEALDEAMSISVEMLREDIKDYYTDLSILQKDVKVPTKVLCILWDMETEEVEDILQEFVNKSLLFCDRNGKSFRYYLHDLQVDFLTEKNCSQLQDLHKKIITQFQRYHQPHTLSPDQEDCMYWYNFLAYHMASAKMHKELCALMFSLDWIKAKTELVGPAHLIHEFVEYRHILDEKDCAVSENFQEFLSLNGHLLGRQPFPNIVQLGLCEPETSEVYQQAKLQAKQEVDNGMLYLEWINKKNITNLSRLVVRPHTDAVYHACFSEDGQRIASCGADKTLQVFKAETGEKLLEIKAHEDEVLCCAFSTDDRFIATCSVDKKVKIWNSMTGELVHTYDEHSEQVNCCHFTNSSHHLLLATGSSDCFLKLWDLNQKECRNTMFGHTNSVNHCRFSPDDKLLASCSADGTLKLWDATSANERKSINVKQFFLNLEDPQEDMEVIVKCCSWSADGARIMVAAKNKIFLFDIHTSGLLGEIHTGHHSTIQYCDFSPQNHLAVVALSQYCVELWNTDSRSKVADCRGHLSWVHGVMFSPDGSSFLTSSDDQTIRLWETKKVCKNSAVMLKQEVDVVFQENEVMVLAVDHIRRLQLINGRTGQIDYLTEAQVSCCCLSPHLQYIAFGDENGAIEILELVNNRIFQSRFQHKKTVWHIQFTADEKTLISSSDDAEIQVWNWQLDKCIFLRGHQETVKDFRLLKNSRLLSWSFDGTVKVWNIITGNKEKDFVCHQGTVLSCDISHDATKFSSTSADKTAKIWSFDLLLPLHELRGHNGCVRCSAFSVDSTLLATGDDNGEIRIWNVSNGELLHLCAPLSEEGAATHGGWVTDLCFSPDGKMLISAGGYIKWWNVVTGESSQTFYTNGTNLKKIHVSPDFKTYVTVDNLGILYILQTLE

[13] = target: Heat shock protein HSP 90-alpha (Homo sapiens, UniProt P07900); assay type: functional, organism-based
[14] = growth induction of Burl-1 ts yeast mutant, dose response, counter-screen for SUMOylation pathway inhibitor project, whole organism, S. cerevisiae, luminescence (AID 463199); assay type: functional
P388 = assay: cells; assay type: functional; settings: Mus musculus
SN12K1 = assay: cells; assay type: functional; settings: Homo sapiens
P388/ADR = assay: cells; assay type: functional; settings: Mus musculus
[15] = target: T4, Apoptotic protease-activating factor 1; assay: SAR analysis of small molecule Activators of Apaf-1 in a Fluorescent assay.; assay type: functional; settings: read-out: EC50_Mean
Cytochrome P450 3A4 = Cytochrome P450 3A4 (Homo sapiens, UniProt P08684); settings: Potency;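 note: confirmatory qHTS run detecting inhibitors and substrates of CYP3A4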
Vero [16] = assay: cells; assay type: functional, cell-based; settings: Chlorocebus sabaeus
[17] = target: Low molecular weight phosphotyrosine protein phosphatase (Homo sapiens, UniProt P24666); assay type: functional; settings: read-out: IC50_Mean;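 note: Dose-response confirmation assay measuring inhibition of LMPTP enzyme activity by fluorescence intensity read-out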
[18] = Luminescence Cell-Based Dose Retest to Confirm Inhibitors of Cancer Stem Cells. [Related pubchem assays (depositor defined):AID2717, AID2721]; assay type: functional; settings: Homo sapiens
[19] = LGR2 antagonists, dose response, cell-based, HEK293, CRE-luciferase reporter, cherry pick, set 2 (AID 743343); assay type: functional;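 note: transfected cells were stimulated with diluted bursicon conditioned medium after compound addition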
[20] = HEK293 cell cytotoxicity, dose response, cytotoxicity control, plate reader, cherry-picked samples (AID 743446); assay type: functional, cell-based
Melanocortin receptor 4 [21] = target: T5, Melanocortin receptor 4 (Homo sapiens, UniProt P32245); assay: MC4R antagonist potency on cAMP, dose response, cell-based, TR-FRET, biased antagonists (AID 602298); assay type: functional;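 note: antagonist potency against agonist-stimulated cAMP production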
[22] = A549 cell cytotoxicity, dose response, cytotoxicity control, plate reader, cherry-pick, antagonist series (AID 743412); assay type: functional, cell-based
Melanocortin receptor 4 [23] = target: T5, Melanocortin receptor 4; assay type: functional, cell-based
[24] = MC4R antagonists, dose response, counter-screen for LGR2 antagonist project, cell-based, plate reader, cherry pick (AID 743444); assay type: functional;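 note: transfected HEK 293 cells stimulated with alpha-MSH peptide; potency of inhibitors of the alpha-MSH evoked signal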
[25] = nonselective inhibitors of cellular cAMP signaling, dose response, counter-screen for MC4R biased antagonist project, cell-based, TR-FRET cAMP detection (AID 602305); assay type: functional;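 note: U2OS cells stimulated with forskolin near its EC80 as the cAMP inducer; potency is for inhibition of forskolin-stimulated cAMP signaling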

T5 sequence (P32245 whole entry): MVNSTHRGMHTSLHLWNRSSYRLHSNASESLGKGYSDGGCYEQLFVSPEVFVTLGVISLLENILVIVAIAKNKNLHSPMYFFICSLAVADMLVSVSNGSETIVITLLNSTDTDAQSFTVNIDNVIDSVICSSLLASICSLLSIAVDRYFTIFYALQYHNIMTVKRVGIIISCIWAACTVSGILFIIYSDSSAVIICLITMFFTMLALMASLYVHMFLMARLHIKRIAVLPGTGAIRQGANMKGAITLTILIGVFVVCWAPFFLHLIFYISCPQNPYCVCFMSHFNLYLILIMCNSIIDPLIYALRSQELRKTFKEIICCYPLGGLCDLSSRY
Sequence of Glucose-6-phosphate 1-dehydrogenase (P11413 whole entry): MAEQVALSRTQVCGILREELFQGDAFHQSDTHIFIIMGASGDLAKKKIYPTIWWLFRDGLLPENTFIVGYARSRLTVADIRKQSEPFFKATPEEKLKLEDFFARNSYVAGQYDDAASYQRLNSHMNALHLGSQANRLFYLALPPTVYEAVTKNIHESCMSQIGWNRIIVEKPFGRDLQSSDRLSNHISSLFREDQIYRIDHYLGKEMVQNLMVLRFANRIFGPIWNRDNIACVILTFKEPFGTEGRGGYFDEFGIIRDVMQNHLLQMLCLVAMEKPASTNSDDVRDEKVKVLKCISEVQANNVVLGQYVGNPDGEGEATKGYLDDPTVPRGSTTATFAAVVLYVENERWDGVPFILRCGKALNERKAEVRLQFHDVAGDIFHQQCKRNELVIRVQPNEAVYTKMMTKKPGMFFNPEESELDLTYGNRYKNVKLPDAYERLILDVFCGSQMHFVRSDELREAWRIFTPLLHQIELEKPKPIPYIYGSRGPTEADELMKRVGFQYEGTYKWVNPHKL
Sequence of Low molecular weight phosphotyrosine protein phosphatase (P24666 whole entry): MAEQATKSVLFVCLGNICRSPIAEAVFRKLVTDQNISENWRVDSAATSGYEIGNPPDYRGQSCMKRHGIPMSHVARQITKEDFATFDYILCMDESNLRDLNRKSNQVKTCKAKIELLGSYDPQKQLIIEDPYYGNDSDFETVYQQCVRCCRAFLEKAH
Sequence of Cytochrome P450 3A4 (P08684 whole entry): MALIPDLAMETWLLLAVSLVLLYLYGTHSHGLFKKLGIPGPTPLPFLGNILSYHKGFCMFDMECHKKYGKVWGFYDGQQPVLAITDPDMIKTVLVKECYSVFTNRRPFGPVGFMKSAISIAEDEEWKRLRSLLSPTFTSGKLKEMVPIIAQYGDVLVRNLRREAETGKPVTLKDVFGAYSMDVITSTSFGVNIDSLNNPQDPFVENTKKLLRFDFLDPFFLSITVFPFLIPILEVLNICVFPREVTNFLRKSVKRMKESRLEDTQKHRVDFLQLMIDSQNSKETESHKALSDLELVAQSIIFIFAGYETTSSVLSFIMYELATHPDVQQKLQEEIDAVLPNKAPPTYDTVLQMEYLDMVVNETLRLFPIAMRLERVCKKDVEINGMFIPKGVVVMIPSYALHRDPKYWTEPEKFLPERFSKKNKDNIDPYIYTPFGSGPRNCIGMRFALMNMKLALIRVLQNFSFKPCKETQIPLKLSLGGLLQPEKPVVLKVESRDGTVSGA
Sequence of FAD-linked sulfhydryl oxidase ALR (P55789 whole entry): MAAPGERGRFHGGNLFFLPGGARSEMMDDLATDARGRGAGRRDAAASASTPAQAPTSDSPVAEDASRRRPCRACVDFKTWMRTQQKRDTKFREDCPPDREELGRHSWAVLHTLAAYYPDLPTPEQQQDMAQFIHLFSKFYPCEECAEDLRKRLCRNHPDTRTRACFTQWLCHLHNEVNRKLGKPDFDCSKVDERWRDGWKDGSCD

SMILES: O=c1ccsn1Cc1ccccc1
- AC50 [1]: < 0.005 µM (active)
- EC50 [2]: 1.1 µM (active)
- EC50 [3]: > 104 µM (inactive)
- EC50 [4]: 12.5 µM (active)
- IC50 [5]: 75.6 µM (inactive)
- EC50 [6]: 37.5 µM (active)
- EC50 [7]: 13 µM (active)
- CC50 (Vero [8]): > 25 µM (active)

SMILES: CCOC(=O)c1cc(C(=O)NC(C)c2ccccc2)c(O)nc1C (stereo not given)
- IC50 [9]: 0.798 µM (active)
- IC50 [10]: 0.34 µM (active)

SMILES: Oc1c(Br)cc(Br)cc1/C=N/c1cccc2ncccc12
- IC50 [9]: 4.19 µM (active)
- IC50 [10]: 4.74 µM (active)
- EC50 [11]: > 260 µM (inactive)
- IC50 (H9c2): 13.5 µM (active)
- IC50 [12]: 36 µM (active)

SMILES: Cc1ccc(S(=O)(=O)N(C(=O)c2ccncc2)c2ccc(OC(=O)c3ccncc3)cc2)c(C)c1
- AC50 [13]: 1.72 µM (active)

SMILES: O=C(NCCN1CCOCC1)Nc1ccc(Cl)cc1Cl
- AC50 [14]: 68.1 µM (active)

SMILES: O=NN(CCCl)C(=O)N[C@H]1CC[C@@H](CC(=O)O)CC1
- GI50 (P388): 12.9 µM (inactive)
- GI50 (SN12K1): > 100 µM (inactive)
- GI50 (P388/ADR): 19.9 µM (inactive)

SMILES: Cc1cccc(C)c1N1C(=O)CC2(CC(c3ccc(F)cc3)=NO2)C1=O (stereo not given)
- EC50 [15]: > 100 µM (inactive)

SMILES: COc1cc(NCC(C)C(=O)O)cc(OC)c1OC (stereo not given)
- EC50 [15]: > 100 µM (inactive)

SMILES: O=C(O)CC1=C(Nc2ccccc2)C(=O)N(c2ccccc2)C1c1ccc(Cl)cc1 (stereo not given)
- IC50 [9]: 8.1 µM (active)
- IC50 [10]: 2.7 µM (active)
- EC50 [11]: > 260 µM (inactive)

SMILES: CC1OC(=O)C(C(C)C)NC(=O)C(C(C)C)OC(=O)C(C(C)C)NC(=O)C(C)OC(=O)C(C(C)C)NC(=O)C(C(C)C)OC(=O)C(C(C)C)NC(=O)C(C)OC(=O)C(C(C)C)NC(=O)C(C(C)C)OC(=O)C(C(C)C)NC1=O (stereo not given)
- GI50 (P388): 0.0025 µM (active)
- AC50 (Cytochrome P450 3A4): 12.6 µM (inconclusive)
- GI50 (SN12K1): 0.00281 µM (active)
- GI50 (P388/ADR): 0.00396 µM (active)

SMILES: CCc1nnc(NC(=O)CSc2nc3c(cc2C#N)CCCC3)s1
- AC50 [14]: 58.2 µM (active)

SMILES: COc1cccc(-n2c(CN3CCN(C)CC3)nc3ccc([N+](=O)[O-])cc3c2=O)c1
- IC50 (Vero [16]): 14.7 µM (active)
- CC50 (Vero [8]): > 25 µM (active)

SMILES: CCCCn1c(N)c(N(CC(C)C)C(=O)CSCC(=O)Nc2cccc(C)c2)c(=O)[nH]c1=O
- AC50 [14]: 54.1 µM (active)

SMILES: C=C1CC2CC[C@@]34C[C@@H]5O[C@@H]6C(O[C@H]7CC[C@H](CC(=O)OC8[C@@H](C)C9OC%10C[C@]%11(C[C@@H]%12O[C@@]%13(C[C@@H](C)[C@@H]%12O%11)C[C@H](C)[C@@H]%11OC%12CC(C(O)CO)OC%12C[C@@H]%11O%13)OC%10CC9O[C@H]8C[C@H]8O[C@@H](CC[C@@H]1O2)C[C@@H](C)C8=C)O[C@@H]7[C@@H]6O3)C5O4 (stereo not given in full)
- GI50 (P388): 0.000148 µM (active)
- GI50 (SN12K1): 0.000148 µM (active)
- GI50 (P388/ADR): 0.00416 µM (active)

SMILES: O=C(COC(=O)c1ccc(Br)o1)Nc1nc2c(F)c(F)c(F)cc2s1
- IC50 [17]: 12.7 µM (active)

SMILES: CCCCNc1c(-c2cccc(-c3cc(C(C)=O)cs3)c2)nc2ccc(C)cn12
- AC50 [18]: 4.47 µM (active)
- AC50 [19]: 11.4 µM (active)
- AC50 [20]: > 52 µM (inactive)
- IC50 (Melanocortin receptor 4 [21]): > 64.6 µM (inactive)
- AC50 [22]: > 52 µM (inactive)
- EC50 (Melanocortin receptor 4 [23]): > 89.2 µM (inactive)
- AC50 [24]: 14.5 µM (active)
- IC50 [25]: > 64.6 µM (inactive)
